Measurements: paper PMC7268320, “Cerebrospinal fluid penetration of targeted therapeutics in pediatric brain tumor patients” (Acta Neuropathologica Communications, 2020)
Entries after “also recorded” stand apart in the source; their conditions may differ.

Key:
[1] = Detection of drug metabolites in patient CSF, HPLC-IMS-Q-TOF MS with in silico metabolite prediction; assay type: in vivo, human
Description: In a next step, theoretical molecular formulas and related ion masses of the predicted metabolites were transferred into a database and compared to measured high-resolution Q-TOF mass spectra of biological samples. For that purpose, MassHunter Qualitative Workflows B.08.00 software (Agilent Technologies, Santa Clara, California) was used, as it enables (semi)-automated data processing. Within this procedure, theoretical and measured exact ion masses and abundances of isotopologues and molecule-cation adducts were compared. The results of this comparison were then used to evaluate the validity of the identification, which is expressed as a score. This quality measure is important as it reduces the risk of false positives that are likely in complex biological samples, especially when only the accurate mass of a molecule is used. […]
(§1) Metabolite detection and determination of collision cross sections was performed using an IMS-Q-TOF MS within a mass range of 100 – 1700 m/z in QTOF-only and IMS mode respectively. Ionization was again obtained by the means of positive electrospray ionization using 5 L min-1 of nitrogen stream with 300 °C for drying, a capillary voltage of 3.5 kV and a nebulizer pressure of 35 psig. Further parameters included a sheath gas flow of 11 L min-1 at 350 °C and a nozzle voltage of 1 kV. The fragmentor voltage was set to 400 V. Ion mobility experiments were performed with a maximal drift time of 60 ms at a frame rate of 0.9 frames per second resulting in a total of 600 TOF-transients within one frame. Data processing was achieved using IM-MS Browser B.08.00 from Agilent Technologies on the basis of ion

[2] = metabolites detected in CSF; cited from earlier work
[3] = CSF drug concentration in pediatric brain tumor patients, Ommaya reservoir samples, HPLC-QqQ MS; assay type: in vivo, human; conditions: for CSF penetrance class: CSF concentration class; for CSF concentration, mean: total drug, steady state; for CSF concentration, mean / detection in CSF samples: oral dosing, pediatric brain tumor patients
Experimental: Samples were obtained from patients treated at the Department of Pediatrics and Adolescent Medicine at the General Hospital of Vienna and the study was approved by the ethics committee of the Medical University of Vienna. Patient characteristics (age, weight, sex) and clinical data (tumor type, medication, radiotherapy, localization, leptomeningeal disease, serum protein levels, and CSF protein levels) were retrieved from patient charts. Clinical and serum parameters were measured within the same treatment cycle, CSF protein levels at the same date and sample collection time point. Samples were collected and snap frozen within routine clinical sampling during intraventricular chemotherapy administration.
We included samples of patients who received oral small molecule inhibitors and concomitant intraventricular therapy. […] As backbone therapy the majority of patients were treated according to the MEMMAT protocol (NCT01356290) with slight modifications in some cases as indicated in Additional file 1: Table S1. Dosing for pediatric patients was adjusted according to the treatment protocols or previous reports as outlined in Table 1. […] In two cases, samples of patients being sequentially treated with different drugs were collected as indicated in Additional file 1: Table S2. […] CSF samples (< 0.5 mL) of pediatric patients were collected using an Ommaya reservoir, immediately snap frozen and afterwards stored at − 80 °C prior to HPLC-MS analysis. Figure 1 gives general information on the workflow of CSF sample collection, sample preparation and HPLC-MS analysis. Detailed information on the analysis method and the working parameters of the HPLC-MS system(s) can be found in the supplementary material available online (Additional file 1: Figures S1 and S2 and Tables S3–4).
In a first step, we determined whether CSF samples from Ommaya reservoirs analyzed with HPLC-QqQ MS or HPLC-IMS-Q-TOF MS allow reliable detection of orally administered drugs and the respective metabolites. For that purpose, special focus was on the improvement of an HPLC-QqQ MS multi-method to quantitate the respective substances in CSF samples. The applied chromatographic gradient as well as the sensitivity of the MS detection were optimized to allow a quantitation of all mentioned analytes within one run and over a broad range of analyte concentration levels (800 ng L^− 1 to 250 μg L^− 1).
Table S2 Sequential therapies of the investigated drugs in the study cohort. The period to the prior drug is indicated in brackets.
Selleckchem (Houston, TX, USA). Standards were originally prepared as a 10 mM DMSO solution, but were further diluted with methanol to obtain stock solutions containing analyte concentrations of 10 mg L-1 and were stored at 4 °C. The internal standard (ISTD) carbamazepine (> 98 %) was obtained from Sigma-Aldrich Handels GmbH (Vienna, Austria) and used as a methanolic stock solution with a concentration of 2 g L-1, which was diluted as needed.
Succinanilic acid (p.a.) was purchased from Sigma-Aldrich Handels GmbH (Vienna, Austria) diluted to a 400 mg L-1 methanolic stock solution and stored at 4 °C.
All used solvents were HPLC grade and were purchased from VWR International GmbH (Darmstadt, […]
Formic acid (≥ 96 %) was purchased from Sigma-Aldrich Handels GmbH (Vienna, Austria).
Water was used in Millipore quality obtained from a Millipore purification system (Molsheim, France).
CSF samples (< 0.5 mL) of pediatric patients receiving cancer therapy drugs were collected using an Ommaya reservoir, and were stored at -80 °C prior to further analysis.

[4] = Calculated free (protein-unbound) drug levels in CSF, law of mass action; assay type: in vivo, human; conditions: law of mass action approach; for fraction unbound: human, CSF, oral, read-out: unbound fraction of the total drug amount measured in CSF
Description: Directly measuring free drug levels in CSF may be impossible due to low drug concentrations. Besides the experimental quantitation, if feasible, also the law of mass action can be used to predict protein-unbound drug levels. Accordingly, CSF proteins and associated drugs may be considered as center and ligand, forming a complex. Consequently, we applied the corresponding mathematical model to estimate free drug concentration. The derivation is given in further detail in the supplementary material.

ABCB1 = experiment: Intracellular drug accumulation in ABCB1-overexpressing KB-C1 cells with or without elacridar (ABCB1 substrate testing), HPLC-QqQ MS; assay type: cell-based; conditions: fold-change of drug accumulation upon ABCB1-inhibition with elacridar, Fig. 4 coding: > 2 fold-control unfavorable, 1–2 intermediate, < 1 favorable
Experimental: We first compared interaction of the investigated drugs with ABCB1 by measuring fluorescent substrate drug accumulation in the parental KB-3-1 (a HeLa cell derivative) cell model and its isogenic ABCB1-overexpressing KB-C1 cell model, as previously published. As a known fluorescent ABCB1 substrate calcein (derived from non-fluorescent calcein AM) was used in the presence of investigated drugs (1 μM and 10 μM) using fluorescence-activated cell sorting (FACS). The ABCB1 inhibitor elacridar was used as positive control. As this approach cannot distinguish competitive (by a substrate) and non-competitive (by a pure inhibitor) ABCB1 inhibition, KB-C1 cells were additionally exposed to the examined drugs with or without elacridar to test the actual impact of ABCB1 activity on the concentration of drug within the cells. In detail, cultivated cells were grown, washed, lysed using 100 μL methanol, centrifuged and stored at − 80 C prior to analysis. […] Finally, 100 μL supernatant were collected and analyzed using the developed HPLC-QqQ MS method (see Supplementary Material).
6. Experiments with ABCB1-overexpressing KBC1 cells
Experiments were conducted to test for a possible inhibition or substrate character of the investigatzed […]
Figure S8 ABCB1 testing. (A) Calcein accumulation assay in KB-3-1 (control) and ABCB1-overexpressing KBC1 cells. Bars depict calcein fluorescence intensity measured by fluorescence activated cell sorting (FACS). Higher bars as compared to calcein in ABCB1-overexpressing cells indicate ABCB1-inhibition. Elacridar served as positive control. (B) Accumulation of drugs upon ABCB1-inhibition with elacridar measured by HPLC-QqQ MS.
(without elacridar inhibition).
(1 picture or pasted object on this page, not shown here)

[5] = cited from earlier work
[6] = Collision cross section by HPLC-IMS-Q-TOF MS; assay type: physicochemical
Description: Data processing was achieved using MassHunter Workstation Software B.05.02 from Agilent […]
for quantitation, including all transitions and corresponding collision energies as well as fragmentor voltages and retention times.
Table S3 Overview of the used QqQ transitions for quantitative and qualitative characterization in Dynamic MRM Mode using 7 V of cell acceleration voltage, 500 ms cycle time and positive polarization within an Agilent 6420 QqQ.
Compound Precursor Ion Product Ion / r.t. / min Fragmentor / Collision […]
as §1

[7] = Matched serum sample to prove oral uptake of nintedanib, HPLC-MS; assay type: in vivo, human; conditions: one time point, patient #4

Compound	metabolite identification in CSF [1]	Active / Inactive (biological activity of metabolite) [2]	CSF penetrance class [3]	CSF concentration, mean [3]	fraction unbound [4]	calculated free, unbound CSF concentration, mean [4]	ABCB1 substrate evaluation (ABCB1)	other results
O=C(O)CCC(=O)Nc1ccccc1 [succinanilic acid]	identified; also recorded: high concentrations	inactive	–	–	–	–	–	–
O=C(CCCCCCC(=O)Nc1ccccc1)NO [vorinostat]	–	–	high (high (> 10 nM))	75.4 nM	~0.99	75.3 nM	most favorable	–
CNC(=O)c1cc2cnc(Nc3ccc(N4CCNCC4)cn3)nc2n1C1CCCC1 [demethylated ribociclib]	identified	active	–	–	–	–	–	–
O=C(CCCCCCC(=O)Nc1ccccc1)NO[C@@H]1O[C@H](C(=O)O)[C@@H](O)[C@H](O)[C@H]1O [glucuronidated vorinostat]	identified	inactive	–	–	–	–	–	–
Cc1[nH]c2ccccc2c1CCNCc1ccc(/C=C/C(=O)NO)cc1 [panobinostat]	–	–	–	–	–	–	highly transported by ABCB1	detection in CSF samples [3]: not detected; also recorded: untraceable; panobinostat levels in a published study ([5]; children, higher panobinostat doses): below the detection limit; half-life [5]: 31 h
CNC(=O)c1cc(Oc2ccc(NC(=O)Nc3ccc(Cl)c(C(F)(F)F)c3)c(F)c2)ccn1 [regorafenib]	–	–	moderate (moderate (1–10 nM))	6.7 nM	< 0.6	3.9 nM	most favorable	CCS value relative to that expected from the MW [6]: significantly lower; protein binding in serum ([5]; serum): 99.5%
CN(C)C(=O)c1cc2cnc(Nc3ccc(N4CCNCC4)cn3)nc2n1C1CCCC1 [ribociclib]	–	–	high (high (> 10 nM))	44.1 nM	~0.99	43.5 nM	intermediate	level detected in CSF of our patient ([3]; pediatric patient, 3.33 mg/kg daily, as quoted in discussion): 43 nM
Cc1nc(Nc2ncc(C(=O)Nc3c(C)cccc3Cl)s2)cc(N2CCN(CCO)CC2)n1 [dasatinib]	–	–	moderate (moderate (1–10 nM))	1.2 nM	~0.99	1 nM	highly transported by ABCB1	proportion of CSF samples in which the drug was detected ([3]; CSF samples of pediatric patients): 66%
Cc1ccc(NC(=O)c2ccc(CN3CCNCC3)cc2)cc1Nc1nccc(-c2cccnc2)n1 [demethylated imatinib]	identified	active	–	–	–	–	–	–
COC(=O)c1ccc2c(c1)NC(=O)/C2=C(\Nc1ccc(N(C)C(=O)CN2CCN(C)CC2)cc1)c1ccccc1 [nintedanib]	–	–	–	–	–	–	intermediate	detection in CSF samples [3]: not detected; also recorded: not identified; serum concentration [7]: 30 nM
